Source: PubChem BioAssay (NCI)
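Each compound was tested at five concentrations against cells in 96-well plates for 48 hours. GI50 marks 50% less growth. TGI: total growth inhibition.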

Experiments:
Test in all cases: DTP human tumour cell line panel, 48 h
[1] = test system: T-47D breast
[2] = test system: SK-MEL-2 melanoma
[3] = test system: 786-0 renal
[4] = test system: NCI-H23 lung
[5] = test system: NCI-H226 lung
[6] = test system: MALME-3M melanoma
[7] = test system: SNB-75 CNS
[8] = test system: MDA-MB-231 breast
[9] = test system: NCI-H522 lung
[10] = test system: KM12 colon
[11] = test system: CAKI-1 renal
[12] = test system: SK-OV-3 ovarian
[13] = test system: HCC-2998 colon
[14] = test system: RXF 393 renal
[15] = test system: HCT-116 colon
[16] = test system: DU-145 prostate
[17] = test system: NCI-H460 lung
[18] = test system: UACC-257 melanoma
[19] = test system: HOP-62 NSCLC
[20] = test system: A549 NSCLC
[21] = test system: NCI/ADR-RES ovarian
[22] = test system: OVCAR-8 ovarian
[23] = test system: SW-620 colon
[24] = test system: SF-539 CNS
[25] = test system: COLO 205 colon
[26] = test system: SNB-19 CNS
[27] = test system: K-562 leukemia
[28] = test system: SR leukemia
[29] = test system: UO-31 renal
[30] = test system: SN12C renal
[31] = test system: SK-MEL-5 melanoma
[32] = test system: A498 renal
[33] = test system: SK-MEL-28 melanoma
[34] = test system: U251 CNS
[35] = test system: OVCAR-5 ovarian
[36] = test system: CCRF-CEM leukemia
[37] = test system: SF-268 CNS
[38] = test system: HCT-15 colon
[39] = test system: BT-549 breast
[40] = test system: EKVX NSCLC
[41] = test system: HS 578T breast
[42] = test system: UACC-62 melanoma
[43] = test system: LOX IMVI melanoma
[44] = test system: RPMI-8226 leukemia
[45] = test system: HL-60(TB) leukemia
[46] = test system: SF-295 CNS
[47] = test system: ACHN renal
[48] = test system: HT29 colon
[49] = test system: OVCAR-4 ovarian
[50] = test system: TK-10 renal
[51] = test system: MOLT-4 leukemia
[52] = test system: M14 melanoma
[53] = test system: OVCAR-3 ovarian
[54] = test system: IGROV1 ovarian
[55] = test system: HOP-92 NSCLC
[56] = test system: PC-3 prostate
[57] = test system: MCF7 breast

N#Cc1ccc(/C=N/NC(=O)c2[nH]c3ccc(Br)cc3c2-c2ccccc2)s1
GI50 [1]: 2460 nM | TGI [1]: 27300 nM | GI50 [2]: 451 nM | TGI [2]: 16200 nM | GI50 [3]: 395 nM | TGI [3]: 13200 nM | GI50 [4]: 254 nM | TGI [4]: 12000 nM | GI50 [5]: 579 nM | TGI [5]: 6270 nM | GI50 [6]: 564 nM | TGI [6]: 24900 nM | GI50 [7]: 630 nM | TGI [7]: 5360 nM | GI50 [8]: 545 nM | TGI [8]: 4000 nM | GI50 [9]: 78.5 nM | TGI [9]: 262 nM | GI50 [10]: 793 nM | TGI [10]: 18700 nM | GI50 [11]: 374 nM | TGI [11]: 17200 nM | GI50 [12]: 993 nM | TGI [12]: 15300 nM | GI50 [13]: 488 nM | TGI [13]: 9650 nM | GI50 [14]: 222 nM | TGI [14]: 487 nM | GI50 [15]: 118 nM | TGI [15]: 11100 nM | GI50 [16]: 365 nM | TGI [16]: 13700 nM | GI50 [17]: 340 nM | TGI [17]: 2250 nM | GI50 [18]: 344 nM | TGI [18]: 12900 nM | GI50 [19]: 519 nM | TGI [19]: 11600 nM | GI50 [20]: 379 nM | TGI [20]: 13000 nM | GI50 [21]: 118 nM | TGI [21]: 2090 nM | GI50 [22]: 204 nM | TGI [22]: 2190 nM | GI50 [23]: 182 nM | TGI [23]: 14900 nM | GI50 [24]: 87.8 nM | TGI [24]: 543 nM | GI50 [25]: 1690 nM | TGI [25]: 4860 nM | GI50 [26]: 439 nM | TGI [26]: 16700 nM | GI50 [27]: 109 nM | TGI [27]: > 100000 nM | GI50 [28]: 99.2 nM | TGI [28]: > 38800 nM | GI50 [29]: 275 nM | TGI [29]: 17600 nM | GI50 [30]: 227 nM | TGI [30]: 6330 nM | GI50 [31]: 272 nM | TGI [31]: 1230 nM | GI50 [32]: 6540 nM | TGI [32]: 22500 nM | GI50 [33]: 847 nM | TGI [33]: > 37400 nM | GI50 [34]: 312 nM | TGI [34]: 5790 nM | GI50 [35]: 439 nM | TGI [35]: 24600 nM | GI50 [36]: 173 nM | TGI [36]: > 100000 nM | GI50 [37]: 1580 nM | TGI [37]: > 64900 nM | GI50 [38]: 129 nM | TGI [38]: 9510 nM | GI50 [39]: 250 nM | TGI [39]: 1330 nM | GI50 [40]: 1210 nM | TGI [40]: 26300 nM | GI50 [41]: 616 nM | TGI [41]: 24700 nM | GI50 [42]: 139 nM | TGI [42]: 6990 nM | GI50 [43]: 309 nM | TGI [43]: 1430 nM | GI50 [44]: 149 nM | TGI [44]: > 20900 nM | GI50 [45]: 52.9 nM | TGI [45]: 617 nM | GI50 [46]: 41.4 nM | TGI [46]: 2330 nM | GI50 [47]: 277 nM | TGI [47]: 9750 nM | GI50 [48]: 148 nM | TGI [48]: 6900 nM | GI50 [49]: 783 nM | TGI [49]: 30200 nM | GI50 [50]: 1930 nM | TGI [50]: 23800 nM | GI50 [51]: 243 nM | TGI [51]: 30200 nM | GI50 [52]: 235 nM | TGI [52]: 14600 nM | GI50 [53]: 367 nM | TGI [53]: 15700 nM | GI50 [54]: 221 nM | TGI [54]: 9100 nM | GI50 [55]: 645 nM | TGI [55]: 11600 nM | GI50 [56]: 304 nM | TGI [56]: 12300 nM | GI50 [57]: 110 nM | TGI [57]: 5870 nM
